Article PMC12655351, “Synthesis and Anticancer Activity Evaluation of New 5-((5-Nitrofuran-2-yl)allylidene)-2-thioxo-4-thiazolidinones” (Pharmaceuticals, 2025)
Where “and” joins values, the source holds several entries; their conditions need not be identical. Identical values can stand only once. Like-named read-outs stand apart in the source and are kept apart here.

Tests used:
HOP-62 = test: NCI-60 SRB screen; conditions: HOP-62, 48 h
Prostate Cancer [1] = conditions: Prostate Cancer subpanel
SF-539 = conditions: SF-539, 10 μM, 48 h
SR = test: cells; conditions: Homo sapiens, 48 h
OVCAR-4 [2] = test: cells; conditions: Homo sapiens, OVCAR-4, 48 h
HL-60(TB) = test: NCI-60 SRB screen; conditions: HL-60(TB), 48 h
LOX IMVI = conditions: 48 h
HCT-15 = test: NCI-60 SRB screen; conditions: HCT-15, 48 h
Breast cancer = Breast cancer subpanel
M14 = test: NCI-60 SRB screen; conditions: Homo sapiens, M14, 48 h, read-out: LC50, M14, 48 h
EKVX = test: NCI-60 SRB screen; conditions: 48 h
OVCAR-4 [3] = tested on: OVCAR-4
Prostate Cancer [4] = test: cells; conditions: Homo sapiens, read-out: MG_MID GI50
SNB-75 = test: NCI-60 SRB screen; conditions: SNB-75, 48 h
BT-549 = conditions: 48 h
UACC-62 = test: NCI-60 SRB screen; conditions: for GI50 / CC50: UACC-62, 48 h
SN12C [5] = test: cells; conditions: Homo sapiens, 48 h
UACC-257 = test: cells; conditions: Homo sapiens, UACC-257, 48 h
SN12C [6] = conditions: 48 h
A549/ATCC = test: NCI-60 SRB screen
SK-MEL-28 [7] = tested on: SK-MEL-28
SW-620 = test: NCI-60 SRB screen; conditions: SW-620, 48 h
Ovarian cancer = Ovarian cancer subpanel
HCT-116 = test: cells; conditions: Homo sapiens, HCT-116, 48 h
MOLT-4 [8] = conditions: MOLT-4, 48 h
MOLT-4 [9] = test: cells; conditions: Homo sapiens, MOLT-4, 48 h
OVCAR-8 = test: cells; conditions: Homo sapiens, OVCAR-8, 48 h
Renal Cancer = Renal Cancer subpanel
SK-MEL-28 [10] = test: cells; conditions: Homo sapiens, SK-MEL-28, 48 h
HS 578T = conditions: 48 h
Colon cancer = test: NCI-60 SRB screen, subpanel
RPMI-8226 = conditions: RPMI-8226, 48 h

O=C(O)CCCCCN1C(=O)/C(=C/C=C/c2ccc([N+](=O)[O-])o2)SC1=S [14b, 6-((Z)-5-((E)-3-(5-nitrofuran-2-yl)allylidene)-4-oxo-2-thioxothiazolidin-3-yl)hexanoic acid]
GI50 (HOP-62): 1450 nM
TGI (HOP-62): 3050 nM and 3010 nM
GI50 (HOP-62; Homo sapiens): 1440 nM
GI50 (MDA-MB-435; MDA-MB-435, 48 h): 280 nM
CC50 (MDA-MB-435; human, 48 h): 2740 nM
MG_MID TGI (Prostate Cancer [1]): 3130 nM
growth GP (SF-539): -98.05%
GI50 (SR): 270 nM
GI50 (OVCAR-4 [2]): 1310 nM
CC50 (OVCAR-4 [2]; read-out: LC50, OVCAR-4, 48 h): 5410 nM
GI50 (HL-60(TB)): 1110 nM
TGI (HL-60(TB)): 3320 nM and 2810 nM
GI50 (HL-60(TB); Homo sapiens, HL-60, 48 h): 750 nM
growth GP (LOX IMVI; LOX IMVI, 10 μM): -95.58%
GI50 (LOX IMVI; LOX IMVI): 190 nM
TGI (LOX IMVI; LOX IMVI): 420 nM and 390 nM
CC50 (LOX IMVI; human): 780 nM
GI50 (HCT-15): 160 nM
TGI (HCT-15): 510 nM and 350 nM
GI50 (HCT-15; Homo sapiens): 190 nM
MG_MID TGI (Breast cancer): 2610 nM
CC50 (M14): 5560 nM
GI50 (EKVX): 1680 nM
TGI (EKVX): 3480 nM and 3550 nM
GI50 (EKVX; Homo sapiens): 1740 nM
CC50 (EKVX; Homo sapiens, read-out: LC50, EKVX, 48 h): 6940 nM
growth GP (OVCAR-4 [3]; OVCAR-4, 10 μM, 48 h): -97.80%
GI50 (OVCAR-4 [3]; OVCAR-4, 48 h): 1490 nM
TGI (OVCAR-4 [3]; OVCAR-4, 48 h): 2690 nM and 2840 nM
GI50 (Prostate Cancer [4]): 1260 nM
CC50 (SNB-75; Homo sapiens, read-out: LC50, SNB-75, 48 h): 5680 nM
TGI (SNB-75): 2610 nM and 1430 nM
growth GP (BT-549; BT-549, 10 μM): -97.16%
CC50 (BT-549; human): 3030 nM
GI50 (UACC-62; Homo sapiens): 370 nM
CC50 (UACC-62; Homo sapiens, read-out: LC50, UACC-62, 48 h): 4080 nM
growth GP (UACC-62; UACC-62, 10 μM, 48 h): -96.88%
GI50 (UACC-62): 250 nM
CC50 (UACC-62; read-out: LC50): 2820 nM
GI50 (SN12C [5]): 360 nM
CC50 (SN12C [5]; read-out: LC50, SN12C, 48 h): 3890 nM
GI50 (UO-31; UO-31, 48 h): 670 nM
TGI (UO-31; UO-31, 48 h): 1850 nM and 2050 nM
CC50 (UO-31; human, 48 h): 4890 nM
GI50 (UACC-257): 1600 nM
CC50 (UACC-257; read-out: LC50, UACC-257, 48 h): 6270 nM
GI50 (SN12C [6]; SN12C): 260 nM
TGI (SN12C [6]; SN12C): 1360 nM and 860 nM
CC50 (SN12C [6]; human): 3240 nM
GI50 (A549/ATCC; 48 h): 2380 nM
GI50 (A549/ATCC; Homo sapiens, A549, 48 h): 1620 nM
growth GP (DU-145; DU-145, 10 μM, 48 h): -98.04%
GI50 (DU-145; DU-145, 48 h): 1590 nM
TGI (DU-145; DU-145, 48 h): 2870 nM and 3180 nM
CC50 (DU-145; human, 48 h): 6350 nM
GI50 (SK-MEL-28 [7]; SK-MEL-28, 48 h): 1190 nM
TGI (SK-MEL-28 [7]; SK-MEL-28, 48 h): 3110 nM and 2710 nM
CC50 (SK-MEL-28 [7]; human, 48 h): 6210 nM
TGI (SK-MEL-5; SK-MEL-5, 48 h): 1980 nM and 3140 nM
CC50 (SK-MEL-5; human, 48 h): 6380 nM
GI50 (SW-620; Homo sapiens): 230 nM
GI50 (SW-620): 240 nM
TGI (SW-620): 570 nM and 610 nM
MG_MID TGI (Ovarian cancer): 2920 nM
GI50 (HCT-116): 310 nM
GI50 (MOLT-4 [8]): 310 nM
TGI (MOLT-4 [8]): 1500 nM and 1210 nM
GI50 (MOLT-4 [9]): 370 nM
growth GP (HCC-2998; HCC-2998, 10 μM, 48 h): -95.72%
GI50 (HCC-2998; HCC-2998, 48 h): 1600 nM
TGI (HCC-2998; HCC-2998, 48 h): 3320 nM and 2980 nM
GI50 (COLO 205; COLO 205, 48 h): 970 nM
TGI (COLO 205; COLO 205, 48 h): 3080 nM and 2350 nM
CC50 (COLO 205; human, 48 h): 5610 nM
GI50 (OVCAR-8): 570 nM
CC50 (OVCAR-8; read-out: LC50, OVCAR-8, 48 h): 6430 nM
MG_MID TGI (Renal Cancer): 4630 nM
GI50 (SK-MEL-28 [10]): 1640 nM
CC50 (SK-MEL-28 [10]; read-out: LC50, SK-MEL-28, 48 h): 5900 nM
GI50 (HS 578T): 790 nM
TGI (HS 578T): 6440 nM and 7760 nM
MG_MID TGI (Colon cancer; Colon cancer subpanel): 1920 nM
GI50 (Colon cancer; Homo sapiens, read-out: MG_MID GI50): 870 nM
CC50 (Colon cancer; Homo sapiens, read-out: MG_MID LC50): 11700 nM
TGI (RPMI-8226): 1320 nM
